Converted amounts (≈) assume the structure as drawn.
Tests used:
[1] = Dog pharmacokinetic studies, deep intramuscular administration; assay type: in vivo, Beagle dogs; conditions: IM 48 mg/kg, Sesame oil + 1% Benzyl Alcohol; for half-life / AUC(0-inf): Beagle, dog, plasma, im, 48 mg/kg; for half-life: read-out: Half-life t1/2 (hour) prodrug (converted); for AUC(0-inf): read-out: AUC0-inf (ng · h/mL) prodrug
Description: The purpose of this study is to determine the pharmacokinetics of test compounds in plasma, following deep intramuscular administration to Beagle dogs (n=3, unless otherwise specified).
The dose formulation (concentration—400 mg base equivalents/ml in sesame oil+1% benzyl alcohol, unless otherwise specified) was administered via deep intramuscularly (unless otherwise specified). The injection vehicle was also dosed via deep intramuscular route (unless otherwise specified) on contralateral site of each animal at study initiation. The animals were sedated with Propofol at 6 mg/kg via IV administration. Following sedation hair was carefully removed from around the injection site and the area gently cleaned. Care will be taken to avoid irritating skin during shaving and cleaning the injection site. Then dogs will be dosed with deep IM administration. At least 2.5 cm depth from the surface into the central aspect of the quadriceps or biceps femoris muscle, by angling the needle toward the femur. If the needle hits the femur, simply draws back slightly and then inject. The dose volume will be determined by the animals' body weight collected on the morning of dosing day. For repeated administration, the injection sites may be rotated to minimize tissue injury.
Blood samples were collected from a peripheral vessel from restrained, non-sedated animals per sampling time point.
Approximately 0.8 mL blood will be collected at each time point.
Each collected blood sample was centrifuged for 4 minutes at 4° C. and 10000 rpm for plasma collection. Plasma was collected and transferred into a pre-labeled PP tube in dry ice at each time point and precipitated immediately using ACN at a ratio of 1:4 (plasma:ACN).
LC-MS/MS methods for the quantitative determination of test compound in biological matrix were developed. […] The sample analysis was performed concurrently with a set of calibration standards and two sets of QC samples using the LC-MS/MS method.
Plasma concentration versus time data was analyzed by non-compartmental approaches using the Phoenix WinNonlin 6.3 software program. Cmax, Tmax, T1/2, AUC(0-t), AUC(0-inf), MRT(0-t), MRT(0-inf) and graphs of plasma concentration versus time profile were prepared.

[2] = Solubility determination in oil (Table 10); conditions: thermodynamic from solid; for solubility thermodynamic: water, Equilibrium solubility: Water
Description: A known amount of test substance (˜40 mg) was weighed into the vial, 100 μL of oil was added and heated to 60° C. and then system was slurried to reach equilibrium. […] Extra oil was added into the vial once compound precipitated out and then the system was re-equilibrated at 1000 rpm at room temperature (25° C.). Final concentration was determined by HPLC method as described below in Table 6a and 6b.

[3] = Polymorph screening of solid state drug substances (Table 23); assay type: physicochemical; conditions: stirred 50 °C 72 hours; for Dry method and appearance: dried solid
[4] = 25 °C, oil or lipid, Solubility by volumetric flask method: Cottonseed oil, volumetric flask method, Heating Temp. 60 °C, Obs. Temp. 25 °C
[5] = 25 °C, oil or lipid, Solubility by volumetric flask method: Sesame oil, volumetric flask method, Heating Temp. 60 °C, Obs. Temp. 25 °C
[6] = 40 °C, section 'Solubility by volumetric flask method', Heating Temp. 40 °C, Obs. Temp. 40 °C
[7] = 25 °C, oil or lipid, Approximate Solubility in Excipient: Cottonseed oil, Heating Temp. 60 °C, Obs. Temp. 25 °C
[8] = 25 °C, oil or lipid, Approximate Solubility in Excipient: Sesame oil, Heating Temp. 60 °C, Obs. Temp. 25 °C
[9] = 40 °C, oil or lipid, Approximate Solubility in Excipient: Cottonseed oil, Heating Temp. 60 °C, Obs. Temp. 40 °C
[10] = 40 °C, oil or lipid, Approximate Solubility in Excipient: Sesame oil, Heating Temp. 60 °C, Obs. Temp. 40 °C
[11] = 40 °C, Heating Temp. 60 °C, Obs. Temp. 40 °C
[12] = after slurry in EtOAc, temperatures N/A
[13] = 40 °C, Heating Temp. 40 °C, Obs. Temp. 40 °C
[14] = 40 °C, oil or lipid, Approximate Solubility in Excipient: Cottonseed oil, Heating Temp. 40 °C, Obs. Temp. 40 °C
[15] = 40 °C, oil or lipid, Approximate Solubility in Excipient: Sesame oil, Heating Temp. 40 °C, Obs. Temp. 40 °C
[16] = 40 °C, organic solvent or mixture, Approximate Solubility in Excipient: Ethanol, Heating Temp. 40 °C, Obs. Temp. 40 °C

| SMILES | half-life [1] [h] | AUC(0-inf) [1] [ng·h/mL] | solubility [2, 9] [mg/mL] | solubility [2, 10] [mg/mL] | XRPD results (Dried) ([3]; Acetone) | Dry method and appearance ([3]; Acetone) | XRPD results (Dried) ([3]; EtOAc) | Dry method and appearance ([3]; EtOAc) | XRPD results (Dried) ([3]; Heptane) | Dry method and appearance ([3]; Heptane) | XRPD results (Dried) ([3]; Isopropanol) | Dry method and appearance ([3]; Isopropanol) | XRPD results (Dried) ([3]; MTBE) | Dry method and appearance ([3]; MTBE) | solubility thermodynamic [2, 13] [mg/mL] | other results |
| --- | --- | --- | --- | --- | --- | --- | --- | --- | --- | --- | --- | --- | --- | --- | --- | --- |
| C=C1CC[C@@]2(O)C3Cc4ccc(OCOC(=O)OCCCCCCCCCC)c5c4[C@@]2(CCN3CC2CC2)[C@H]1O5 [Compound 35, (((4aS,7aS,12bS)-3-(cyclopropylmethyl)-4a-hydroxy-7-methylene-2,3,4,4a,5,6,7,7a-octahydro-1H-4,12-methanobenzofuro[3,2-e]isoquinolin-9-yl)oxy)methyl decyl carbonate] | 70 | – | – | – | – | – | – | – | – | – | – | – | – | – | – | AUC0-inf (ng · h/mL) nalmefene or naltrexone [1]: None; AUC0-inf (ng · h/mL) prodrug [1]: None |
| CCCCCCCCCCCOC(=O)OCOc1ccc2c3c1O[C@H]1C(=O)CC[C@@]4(O)C(C2)N(CC2CC2)CC[C@]314 [Compound 4, (((4aS,7aR,12bS)-3-(cyclopropylmethyl)-4a-hydroxy-7-oxo-2,3,4,4a,5,6,7,7a-octahydro-1H-4,12-methanobenzofuro[3,2-e]isoquinolin-9-yl)oxy)methyl undecyl carbonate] | – | 829 | – | – | – | – | – | – | – | – | – | – | – | – | – | solubility [2, 4]: > 395 mg/mL; solubility [2, 5]: > 400 mg/mL; solubility thermodynamic [2, 6]: < 0.001 mg/mL |
| C=C1CC[C@@]2(O)C3Cc4ccc(OCOC(=O)OCCCCCCCC/C=C/CCCCCCCC)c5c4[C@@]2(CCN3CC2CC2)[C@H]1O5 [Compound 1, (((4aS,7aS,12bS)-3-(cyclopropylmethyl)-4a-hydroxy-7-methylene-2,3,4,4a,5,6,7,7a-octahydro-1H-4,12-methanobenzofuro[3,2-e]isoquinolin-9-yl)oxy)methyl ((E)-octadec-9-en-1-yl) carbonate] | 261 | 1040 | – | – | – | – | – | – | – | – | – | – | – | – | – | – |
| CCCCCCCC/C=C/CCCCCCCCOC(=O)OCOc1ccc2c3c1O[C@H]1C(=O)CC[C@@]4(O)C(C2)N(CC2CC2)CC[C@]314 [Compound 7, (((4aS,7aR,12bS)-3-(cyclopropylmethyl)-4a-hydroxy-7-oxo-2,3,4,4a,5,6,7,7a-octahydro-1H-4,12-methanobenzofuro[3,2-e]isoquinolin-9-yl)oxy)methyl ((E)-octadec-9-en-1-yl) carbonate] | – | 610 | – | – | – | – | – | – | – | – | – | – | – | – | – | – |
| C=C1CC[C@@]2(O)C3Cc4ccc(OC(=O)OCCCCCCCCCCC)c5c4[C@@]2(CCN3CC2CC2)[C@H]1O5 [Compound 3, (4aS,7aS,12bS)-3-(cyclopropylmethyl)-4a-hydroxy-7-methylene-2,3,4,4a,5,6,7,7a-octahydro-1H-4,12-methanobenzofuro[3,2-e]isoquinolin-9-yl undecyl carbonate] | 63.1 | 360 | – | – | – | – | – | – | – | – | – | – | – | – | – | solubility [2, 4]: > 399 mg/mL; solubility [2, 5]: > 401 mg/mL; solubility thermodynamic [2, 6]: < 0.001 mg/mL |
| CCCCCCCCCCCCCCCC(=O)Oc1ccc2c3c1O[C@H]1C(=O)CC[C@@]4(O)C(C2)N(CC2CC2)CC[C@]314 [Compound 55, (4aS,7aR,12bS)-3-(cyclopropylmethyl)-4a-hydroxy-7-oxo-2,3,4,4a,5,6,7,7a-octahydro-1H-4,12-methanobenzofuro[3,2-e]isoquinolin-9-yl palmitate] | – | – | > 400 | > 395 | Pattern B | Evaporation/white powder | Pattern B | Evaporation/white powder | Pattern B | Evaporation/white powder | Pattern B | Evaporation/white powder | Pattern B | Evaporation/white powder | – | solubility at 24 h [2, 7]: < 50 mg/mL; solubility at 24 h [2, 8]: < 50 mg/mL; solubility ([2]; 40 °C, organic solvent or mixture, Approximate Solubility in Excipient: Ethanol, Heating Temp. 60 °C, Obs. Temp. 40 °C): > 401 mg/mL; solubility thermodynamic [2, 11]: 0.0066 mg/mL (≈ 0.0114 mM); solubility thermodynamic [2, 12]: < 0.0005 mg/mL |
| C=C1CC[C@@]2(O)C3Cc4ccc(OC(=O)OCCCCCCCCCCCCCC)c5c4[C@@]2(CCN3CC2CC2)[C@H]1O5 [Compound 31, (4aS,7aS,12bS)-3-(cyclopropylmethyl)-4a-hydroxy-7-methylene-2,3,4,4a,5,6,7,7a-octahydro-1H-4,12-methanobenzofuro[3,2-e]isoquinolin-9-yl tetradecyl carbonate] | – | – | – | – | Pattern A | Evaporation/white powder | Pattern A | Evaporation/white powder | Pattern A | Evaporation/white powder | Pattern A | Evaporation/white powder | Pattern A | Evaporation/white powder | < 0.001 | solubility at 24 h [2, 7]: > 417 mg/mL; solubility at 24 h [2, 8]: > 414 mg/mL |
| C=C1CC[C@@]2(O)C3Cc4ccc(OC(=O)CCCCCCCCCCCCCCCCCCC)c5c4[C@@]2(CCN3CC2CC2)[C@H]1O5 [Compound 16, (4aS,7aS,12bS)-3-(cyclopropylmethyl)-4a-hydroxy-7-methylene-2,3,4,4a,5,6,7,7a-octahydro-1H-4,12-methanobenzofuro[3,2-e]isoquinolin-9-yl icosanoate] | – | – | 201 to 403 (≈ 317 to 636 mM) | 202 to 404 (≈ 319 to 637 mM) | Pattern A | Evaporation/white powder | Pattern A | Evaporation/white powder | Pattern A | Centrifugation/white powder | Pattern A | Centrifugation/white powder | Pattern A | Evaporation/white powder | 0.206 (≈ 0.325 mM) | solubility [2, 14]: 57 to 67 mg/mL (≈ 89.9 to 106 mM); solubility [2, 15]: 68 to 81 mg/mL (≈ 107 to 128 mM); solubility [2, 16]: < 25 mg/mL; solubility thermodynamic [2, 11]: 0.011 mg/mL (≈ 0.0174 mM) |
| C=C1CC[C@@]2(O)C3Cc4ccc(OC(=O)CCCCCCCCCCCCCCCCCCCCC)c5c4[C@@]2(CCN3CC2CC2)[C@H]1O5 [Compound 14, (4aS,7aS,12bS)-3-(cyclopropylmethyl)-4a-hydroxy-7-methylene-2,3,4,4a,5,6,7,7a-octahydro-1H-4,12-methanobenzofuro[3,2-e]isoquinolin-9-yl docosanoate] | – | – | < 25 | < 25 | Pattern A | Evaporation/white powder | Pattern A | Evaporation/white powder | Pattern B | Centrifugation/white powder | Pattern A | Evaporation/white powder | Pattern A | Evaporation/white powder | 0.01 (≈ 0.0151 mM) | solubility [2, 14]: < 50 mg/mL; solubility [2, 15]: < 51 mg/mL; solubility [2, 16]: 69 to 83 mg/mL (≈ 104 to 125 mM); solubility thermodynamic [2, 12]: < 0.0005 mg/mL; solubility thermodynamic ([2]; after slurry in Heptane, temperatures N/A): < 0.0005 mg/mL |
